According to patent US20110301116A1, “NSAIDS-INDUCED GASTROINTESTINAL MUCOSAL DISORDER ALLEVIATOR AND MANUFACTURING METHOD THEREOF” (THE UNIVERSITY OF TOKYO, priority 2008, published 2011):

What was measured:
[1] = system: stomach ulcer model induced by NSAIDs; experiment: Stomach ulcer induced by NSAIDs in rats, lyophilized NSAID and trehalose vs NSAID alone (Working Example 1); assay type: in vivo, rat; settings: trehalose 800 mg/kg, oral, 5 hours, average±standard deviation
Method: Each of the test substances were adjusted by suspending or dissolving them into 0.5% CMC.Na solution. Each of 9 mL of Liquid doses was given per 1 kg weight by oral dose. 0.5% CMC.Na solutions were given to control group.
(§1) We bought Winster male rats (Japan SLC) that were 8 weeks old. We breed these rats keeping 20 to 26 degrees C., humidity of 30 to 70%, housing 2 to 3 rats in a rat breeding gage (mouse and rat breeding CE-2), giving enough amount of filtered tap water. After breeding 7 days, 5 to 10 rats per group were picked to execute the example. The rats were fasting for 24 hours without giving no food and then the rats were fed no food and no water for 1 hour just before the examination.
From 11 am on the previous day of the examination date, the rats were kept fasting and test substances were fed though mouse. After 5 hours passed, these rats were killed by carbon dioxide gas and stomachs were picked up. The duodenums were tagged. 6 mL of neutral formalin was poured from the esophagi so as to fix the stomachs for 30 minutes. The stomachs were cut along with the greater curvature. The cut stomachs were gently washed by saline, the presence of blood spot were observed by a stereoscopic microscope. The area of blood spots was measured by 0.5 mm×0.5 mm unit as an index of ulcer and the sum of each animal was calculated. The rate of suppressed ulcer was calculated, using the ulcer index for the group in which each of test sample was given and the group in which trehalose was also given, in accordance with the following equation.
(§2) Rate of suppressed ulcer(%)=[1−A/B]×100 • […]

[2] = system: gastric mucosal disorder (ulcer) induced by NSAIDs; experiment: Gastric mucosal disorder in rats: NSAID alone, mixture with trehalose, lyophilized with trehalose (Working Example 2); assay type: in vivo; settings: rat, oral, 5 hours, trehalose 800 mg/kg
Method: The liquid doses were prepared on the date when the examination was executed. Weighted NSAIDs were suspended or dissolved into 0.5% CMC.Na solution to prepare doses of administrating NSAIDs only. Suspension of NSAIDs and solution of trehalose were prepared. […] For each groups the amount of dose was 8 mL per kg or rat.
as §1
From 11 am on the previous day of the examination date, the rats were kept fasting and test substances were fed though mouse. After 5 hours passed, these rats were killed by carbon dioxide gas and stomachs were picked up. The duodenums were tagged. 6 mL of neutral formalin were poured from the esophagi so as to fix the stomachs for 30 minutes. The stomachs were cut along with the greater curvature. The cut stomachs were gently washed by saline, the presence of blood spot were observed by a stereoscopic microscope.
The area of blood spots was measured by 0.5 mm×0.5 mm unit as an index of ulcer and the sum of each animals was calculated. The rate of suppressed ulcer was calculated, using the ulcer index for the group in which each of test samples were given and the group in which trehalose was also given, in accordance with the following equation.
as §2

## COc1ccc2c(c1)c(CC(=O)O)c(C)n2C(=O)c1ccc(Cl)cc1 [Indomethacin alone, indomethacin]
[1]; stomach ulcer model induced by indomethacin, indomethacin 30 mg/kg
  ulcer (area of blood spots, ulcer index): 4.83±0.90 mm^2
[2]; indomethacin 30 mg/kg
  Ulcer index (mm^2, average ± standard deviation): 4.83 ± 0.90 mm^2
[2]; indomethacin 30 mg/kg, listed as indomethacin alone
  Ulcer index (mm^2, average ± standard deviation): 4.83±0.90 mm^2

## CC(=O)Oc1ccccc1C(=O)O [Aspirin alone, aspirin]
[1]; stomach ulcer model induced by aspirin, aspirin 200 mg/kg
  ulcer (area of blood spots, ulcer index): 10.40±2.80 mm^2
[2]; aspirin 200 mg/kg
  Ulcer index (mm^2, average ± standard deviation): 10.40 ± 2.73 mm^2
[2]; aspirin 200 mg/kg, listed as aspirin alone
  Ulcer index (mm^2, average ± standard deviation): 10.40±2.73 mm^2

## O=C(O)Cc1ccccc1Nc1c(Cl)cccc1Cl [Diclofenac alone, sodium diclofenac]
[1]; stomach ulcer model induced by diclofenac, diclofenac 40 mg/kg
  ulcer (area of blood spots, ulcer index): 4.30±0.71 mm^2
[2]; diclofenac 40 mg/kg
  Ulcer index (mm^2, average ± standard deviation): 4.30 ± 0.71 mm^2
[2]; diclofenac 40 mg/kg, listed as diclofenac alone
  Ulcer index (mm^2, average ± standard deviation): 4.30±0.71 mm^2

## CC(C)Cc1ccc(C(C)C(=O)O)cc1 (stereo not shown) [ibuprofen alone, ibuprofen]
[1]; stomach ulcer model induced by ibuprofen, ibuprofen 400 mg/kg
  ulcer (area of blood spots, ulcer index): 5.35±1.86 mm^2
